Results taken from article PMC4721062, “Oxadiazole-2-oxides may have other functional targets, in addition to SjTGR, through which they cause mortality in Schistosoma japonicum” (Parasites & Vectors, 2016).
Read-outs that look alike come from different tables or passages of the source.

How the values were obtained:
adult S. japonicum = experiment: microbe, parasite or virus in culture; format: cell-based; settings: for killing at 25 µM / killing at 50 µM / killing at 100 µM / Killing activity 24hr / Killing activity 48hr / Killing activity 72hr: adult worms; for Killing activity 24hr / Killing activity 48hr / Killing activity 72hr: 10 μM
In short: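 Adult worm pairs recovered by portal perfusion from ICR mice 35 days after infection with 50 cercariae, cultured in RPMI 1640 (pH 7.5, 20 mM HEPES, 10% FBS) at 37 °C, 5% CO2. Oxadiazole-2-oxides at 10, 25, 50, 100 μM; motility and survival scored microscopically at 24, 48, 72 h, death being no movement over 2 min; three independent experiments averaged.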

juvenile S. japonicum = experiment: microbe, parasite or virus in culture; format: cell-based; settings: for killing at 2 µM / killing at 5 µM / killing at 50 µM / Killing activity 24hr / Killing activity 48hr / Killing activity 72hr: juvenile worms; for Killing activity 24hr / Killing activity 48hr / Killing activity 72hr: 10 μM
In short: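 Juvenile S. japonicum, 20–30 tail-shed cercariae per well, were exposed to compounds at 2, 5, 10 and 50 μM in RPMI 1640 with 10% FBS and HEPES. Survival was scored microscopically at 24, 48 and 72 h, with death defined by disrupted internal structure or tegument or 1 min without motility. % D is dead/total, averaged over three experiments.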

[1] = Schistosoma japonicum, 24 h, read-out: Mortality of adult worms
[2] = Schistosoma japonicum, 24 h, read-out: Killing activity 24hr
[3] = Schistosoma japonicum, 48 h, read-out: Killing activity 48hr
[4] = Schistosoma japonicum, 72 h, read-out: Killing activity 72hr
[5] = Schistosoma japonicum, 24 h, read-out: Mortality of juvenile worms
[6] = Schistosoma japonicum, 72 h, read-out: Mortality of juvenile worms

Compound: N#Cc1c(-c2ccc(OC/C=C/CBr)cc2)no[n+]1[O-] [Compound 16]
- mortality at 50 µM (adult S. japonicum; [1]): 100%
- killing at 25 µM (adult S. japonicum; [2]): 50%
- killing at 25 µM (adult S. japonicum; [3]): 75%
- killing at 25 µM (adult S. japonicum; [4]): 100%
- killing at 50 µM (adult S. japonicum; [2]): 100%
- killing at 50 µM (adult S. japonicum; [3]): 100%
- killing at 50 µM (adult S. japonicum; [4]): 100%
- killing at 100 µM (adult S. japonicum; [2]): 100%
- killing at 100 µM (adult S. japonicum; [3]): 100%
- killing at 100 µM (adult S. japonicum; [4]): 100%
- Killing activity 24hr (adult S. japonicum; 24 h): n.e.
- Killing activity 48hr (adult S. japonicum; 48 h): 50.0%D
- Killing activity 72hr (adult S. japonicum; 72 h): 80.0%D
- mortality at 50 µM (juvenile S. japonicum; [5]): < 30%
- mortality at 50 µM (juvenile S. japonicum; [6]): 72.1 ± 3.7%
- killing at 2 µM (juvenile S. japonicum; [2]): 14.7%
- killing at 2 µM (juvenile S. japonicum; [3]): 22.7%
- killing at 2 µM (juvenile S. japonicum; [4]): 25.3%
- killing at 5 µM (juvenile S. japonicum; [2]): 16.1%
- killing at 5 µM (juvenile S. japonicum; [3]): 21.9%
- killing at 5 µM (juvenile S. japonicum; [4]): 34.3%
- killing at 50 µM (juvenile S. japonicum; [2]): 31.4%
- killing at 50 µM (juvenile S. japonicum; [3]): 60.5%
- killing at 50 µM (juvenile S. japonicum; [4]): 72.1%
- Killing activity 24hr (juvenile S. japonicum; 24 h): 20.9%D
- Killing activity 48hr (juvenile S. japonicum; 48 h): 27.3%D
- Killing activity 72hr (juvenile S. japonicum; 72 h): 39.1%D

Compound: N#Cc1c(-c2ccc(OCc3ccccc3)cc2)no[n+]1[O-] [Compound 19]
- mortality at 25 µM (adult S. japonicum; [1]): > 75%
- killing at 25 µM (adult S. japonicum; [2]): 100%
- killing at 25 µM (adult S. japonicum; [3]): 100%
- killing at 25 µM (adult S. japonicum; [4]): 100%
- killing at 50 µM (adult S. japonicum; [2]): 100%
- killing at 50 µM (adult S. japonicum; [3]): 100%
- killing at 50 µM (adult S. japonicum; [4]): 100%
- killing at 100 µM (adult S. japonicum; [2]): 100%
- killing at 100 µM (adult S. japonicum; [3]): 100%
- killing at 100 µM (adult S. japonicum; [4]): 100%
- Killing activity 24hr (adult S. japonicum; 24 h): 80.0%D
- Killing activity 48hr (adult S. japonicum; 48 h): 100%D
- Killing activity 72hr (adult S. japonicum; 72 h): 100%D
- killing at 2 µM (juvenile S. japonicum; [2]): 15.1%
- killing at 2 µM (juvenile S. japonicum; [3]): 15.1%
- killing at 2 µM (juvenile S. japonicum; [4]): 17%
- killing at 5 µM (juvenile S. japonicum; [2]): 12.5%
- killing at 5 µM (juvenile S. japonicum; [3]): 19.2%
- killing at 5 µM (juvenile S. japonicum; [4]): 28.8%
- killing at 50 µM (juvenile S. japonicum; [2]): 82.5%
- killing at 50 µM (juvenile S. japonicum; [3]): 92.8%
- killing at 50 µM (juvenile S. japonicum; [4]): 100%
- Killing activity 24hr (juvenile S. japonicum; 24 h): 43.8%D
- Killing activity 48hr (juvenile S. japonicum; 48 h): 50.0%D
- Killing activity 72hr (juvenile S. japonicum; 72 h): 65.0%D

Compound: C#CCOc1ccc(-c2no[n+]([O-])c2C#N)cc1 [Compound 20]
- mortality at 100 µM (adult S. japonicum; Schistosoma japonicum, read-out: Mortality of adult worms): 100%
- killing at 25 µM (adult S. japonicum; [2]): 50%
- killing at 25 µM (adult S. japonicum; [3]): 100%
- killing at 25 µM (adult S. japonicum; [4]): 100%
- killing at 50 µM (adult S. japonicum; [2]): 70%
- killing at 50 µM (adult S. japonicum; [3]): 100%
- killing at 50 µM (adult S. japonicum; [4]): 100%
- killing at 100 µM (adult S. japonicum; [2]): 100%
- killing at 100 µM (adult S. japonicum; [3]): 100%
- killing at 100 µM (adult S. japonicum; [4]): 100%
- Killing activity 24hr (adult S. japonicum; 24 h): n.e.
- Killing activity 48hr (adult S. japonicum; 48 h): 50.0%D
- Killing activity 72hr (adult S. japonicum; 72 h): 75.0%D
- mortality at 100 µM (juvenile S. japonicum; [6]): 67.6 ± 4.5%
- killing at 2 µM (juvenile S. japonicum; [2]): 8.5%
- killing at 2 µM (juvenile S. japonicum; [3]): 14.2%
- killing at 2 µM (juvenile S. japonicum; [4]): 19.9%
- killing at 5 µM (juvenile S. japonicum; [2]): 20%
- killing at 5 µM (juvenile S. japonicum; [3]): 24%
- killing at 5 µM (juvenile S. japonicum; [4]): 34%
- killing at 50 µM (juvenile S. japonicum; [2]): 45.6%
- killing at 50 µM (juvenile S. japonicum; [3]): 48.5%
- killing at 50 µM (juvenile S. japonicum; [4]): 67.6%
- Killing activity 24hr (juvenile S. japonicum; 24 h): 43.4%D
- Killing activity 48hr (juvenile S. japonicum; 48 h): 45.3%D
- Killing activity 72hr (juvenile S. japonicum; 72 h): 52.8%D

Compound: N#Cc1c(-c2ccc(COc3ccccc3)cc2)no[n+]1[O-] [Compound 23]
- mortality at 25 µM (adult S. japonicum; [1]): > 75%
- killing at 25 µM (adult S. japonicum; [2]): 100%
- killing at 25 µM (adult S. japonicum; [3]): 100%
- killing at 25 µM (adult S. japonicum; [4]): 100%
- killing at 50 µM (adult S. japonicum; [2]): 100%
- killing at 50 µM (adult S. japonicum; [3]): 100%
- killing at 50 µM (adult S. japonicum; [4]): 100%
- killing at 100 µM (adult S. japonicum; [2]): 100%
- killing at 100 µM (adult S. japonicum; [3]): 100%
- killing at 100 µM (adult S. japonicum; [4]): 100%
- Killing activity 24hr (adult S. japonicum; 24 h): 62.5%D
- Killing activity 48hr (adult S. japonicum; 48 h): 87.5%D
- Killing activity 72hr (adult S. japonicum; 72 h): 100%D
- mortality at 50 µM (juvenile S. japonicum; [5]): > 70%
- killing at 2 µM (juvenile S. japonicum; [2]): 6%
- killing at 2 µM (juvenile S. japonicum; [3]): 16.1%
- killing at 2 µM (juvenile S. japonicum; [4]): 17.7%
- killing at 5 µM (juvenile S. japonicum; [2]): 9%
- killing at 5 µM (juvenile S. japonicum; [3]): 15%
- killing at 5 µM (juvenile S. japonicum; [4]): 20%
- killing at 50 µM (juvenile S. japonicum; [2]): 69.9%
- killing at 50 µM (juvenile S. japonicum; [3]): 70.8%
- killing at 50 µM (juvenile S. japonicum; [4]): 77%
- Killing activity 24hr (juvenile S. japonicum; 24 h): 45.0%D
- Killing activity 48hr (juvenile S. japonicum; 48 h): 60.0%D
- Killing activity 72hr (juvenile S. japonicum; 72 h): 66.7%D
